Measurements reported in patent US9273057B2 (Bristol-Myers Squibb Company, priority 2012, dated 2016).
Counter-ions that a name gives are not always drawn.

Target: CK2A1 (CK2α/β) (Homo sapiens, UniProt P68400)
Assay: CK2 kinase assay, CK2A1 (CK2α/β)
Assay type: biochemical
Conditions: Table A; read-out: CK2A1 (CK2α/β) (IC50)

Chain of CK2A1 (CK2α/β) (P68400 whole entry, species assumed): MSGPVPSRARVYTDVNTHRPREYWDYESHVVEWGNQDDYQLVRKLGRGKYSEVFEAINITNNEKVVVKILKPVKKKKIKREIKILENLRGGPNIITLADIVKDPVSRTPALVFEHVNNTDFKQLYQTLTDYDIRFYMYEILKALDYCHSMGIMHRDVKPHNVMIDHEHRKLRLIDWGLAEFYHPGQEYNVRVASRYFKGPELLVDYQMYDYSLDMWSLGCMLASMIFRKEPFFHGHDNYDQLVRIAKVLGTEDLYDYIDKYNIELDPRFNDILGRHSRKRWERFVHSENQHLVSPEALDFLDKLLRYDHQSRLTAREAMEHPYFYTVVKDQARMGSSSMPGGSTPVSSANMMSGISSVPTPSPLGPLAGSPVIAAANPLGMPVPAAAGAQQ
Chain of CK2A1 (CK2α/β) (P67870 whole entry partner, species assumed): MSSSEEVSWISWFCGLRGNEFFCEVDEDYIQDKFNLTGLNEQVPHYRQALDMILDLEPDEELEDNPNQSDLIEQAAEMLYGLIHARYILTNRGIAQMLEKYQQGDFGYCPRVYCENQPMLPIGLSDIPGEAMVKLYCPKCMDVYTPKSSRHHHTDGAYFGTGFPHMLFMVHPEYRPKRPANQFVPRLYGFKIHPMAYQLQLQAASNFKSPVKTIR

IC50 [nM] | Structure (SMILES)
1.74 | [2H]C1(N2CCC(c3cc(C#N)cc(Nc4nc(NCC)c5ncc(C#N)n5n4)c3Cl)CC2)COC1 [Example 350, 2-((2-chloro-5-cyano-3-(1-(3-~2~H)-3-oxetanyl-4-piperidinyl)phenyl)amino)-4-(ethylamino)imidazo[2,1-f][1,2,4]triazine-7-carbonitrile]
0.37 | N#Cc1cc(Nc2nc(NC3CC3)c3ncc(C#N)n3n2)c(Cl)c(N2CCN(C3COC3)C(CF)C2)c1 (racemic) [Example 312, (+/−)2-((2-chloro-5-cyano-3-(3-(fluoromethyl)-4-(oxetan-3-yl)piperazin-1-yl)phenyl)amino)-4-(cyclopropylamino)imidazo[2,1-f][1,2,4]triazine-7-carbonitrile]
0.46 | N#Cc1cc(Nc2nc(NC3CC3)c3ncc(C#N)n3n2)c(Cl)c(N2CCN(C(=O)CCCS(N)(=O)=O)CC2)c1 [Example 93, 4-(4-(2-chloro-5-cyano-3-((7-cyano-4-(cyclopropylamino)imidazo[2,1-f][1,2,4]triazin-2-yl)amino)phenyl)-1-piperazinyl)-4-oxo-1-butanesulfonamide]
10.3 | CC(C)OC(=O)N1CC(N2CCN(c3cc(C#N)cc(Nc4nc(NC5CC5)c5ncc(C#N)n5n4)c3Cl)CC2)C1 [Example 518, propan-2-yl 3-[4-(2-chloro-5-cyano-3-{[7-cyano-4-(cyclopropylamino)imidazo[2,1-f][1,2,4]triazin-2-yl]amino}phenyl)piperazin-1-yl]azetidine-1-carboxylate]
1.48 | N#Cc1cc(CN2CCNC(C(F)(F)F)C2)c(Cl)c(Nc2nc(NC3CC3)c3ncc(C#N)n3n2)c1 (racemic) [Example 696, (+/−)-2-((2-chloro-5-cyano-3-((3-(trifluoromethyl)piperazin-1-yl)methyl)phenyl)amino)-4-(cyclopropylamino)imidazo[2,1-f][1,2,4]triazine-7-carbonitrile]
1.48 | N#Cc1cc(Nc2nc(NC3CC3)c3ncc(C#N)n3n2)c(Cl)c(C2CCN(C3CCC3O)CC2)c1 (single isomer, unassigned) [Example 646, Cis and trans 2-((2-chloro-5-cyano-3-(1-(2-hydroxycyclobutyl)piperidin-4-yl)phenyl)amino)-4-(cyclopropylamino)imidazo[2,1-f][1,2,4]triazine-7-carbonitrile]
3.28 | CCNc1nc(Nc2cc(C#N)cc(N3CCC(N(C)C4COC4)CC3)c2Cl)nn2c(C#N)cnc12 [Example 365, 2-((2-chloro-5-cyano-3-(4-(methyl(oxetan-3-yl)amino)piperidin-1-yl)phenyl)amino)-4-(ethylamino)imidazo[2,1-f][1,2,4]triazine-7-carbonitrile]
4 | N#Cc1cc(Nc2nc(NC3CC3)c3ncc(C#N)n3n2)c(Cl)c(C2CCN(C3CCN(C4CC4)CC3)CC2)c1 [Example 213, 2-(2-chloro-5-cyano-3-(1′-cyclopropyl-1,4′-bipiperidin-4-yl)phenylamino)-4-(cyclopropylamino)imidazo[1,2-f][1,2,4]triazine-7-carbonitrile]
2.9 | CCNc1nc(Nc2cc(C#N)cc(N3CCN(C4CN(C)C4)CC3)c2Cl)nn2c(C#N)cnc12 [Example 583, 2-({2-chloro-5-cyano-3-[4-(1-methylazetidin-3-yl)piperazin-1-yl]phenyl}amino)-4-(ethylamino)imidazo [2,1-f][1,2,4]triazine-7-carbonitrile]
1.14 | COCCN1CCN(c2cc(C#N)cc(Nc3nc(NC4CC4)c4ncc(C#N)n4n3)c2Cl)CC1 [Example 56]
2.22 | CCNc1nc(Nc2cc(C#N)cc(C3CCN(C(C)C(N)=O)CC3)c2Cl)nn2c(C#N)cnc12 (racemic) [Example 640, (+/−)-2-(4-(2-chloro-5-cyano-3-((7-cyano-4-(ethylamino)imidazo[2,1-f][1,2,4]triazin-2-yl)amino)phenyl)piperidin-1-yl)propanamide]
2.16 | CCNc1nc(Nc2cc(C#N)cc(N3CC[C@@H]4[C@@H](C3)OC(=O)N4[C@H]3CCOC3)c2Cl)nn2c(C#N)cnc12 (single isomer, unassigned) [Example 843]
1.97 | CC(C)(O)C1CCN(CCCc2cc(Cl)c(Nc3nc(NC4CC4)c4ncc(C#N)n4n3)cc2C#N)CC1 [Example 568, 2-((2-chloro-5-cyano-4-(3-(4-(2-hydroxypropan-2-yl)piperidin-1-yl)propyl)phenyl)amino)-4-(cyclopropylamino)imidazo[2,1-f][1,2,4]triazine-7-carbonitrile]
0.65 | COC(=O)N[C@H]1CCN(c2cc(C#N)cc(Nc3nc(NC4CC4)c4ncc(C#N)n4n3)c2Cl)C[C@@H]1OC(=O)/C=C/C(=O)O [Example 198, (2E)-4-(((3S,4S)-1-(2-chloro-5-cyano-3-((7-cyano-4-(cyclopropylamino)imidazo[2,1-f][1,2,4]triazin-2-yl)amino)phenyl)-4-((methoxycarbonyl)amino)-3-piperidinyl)oxy)-4-oxo-2-butenoic acid]
0.53 | N#Cc1cc(Nc2nc(NC3CC3)c3ncc(C#N)n3n2)c(Cl)c(N2CC(N3CCOCC3)C2)c1 [Example 152, 2-((2-chloro-5-cyano-3-(3-(4-morpholinyl)-1-azetidinyl)phenyl)amino)-4-(cycloproplamino)imidazo [2,1-f][1,2,4]triazine-7-carbonitrile]
2.61 | C=CC1(N2CCC(c3cc(C#N)cc(Nc4nc(NC5CC5)c5ncc(C#N)n5n4)c3Cl)CC2)COC1 [Example 379, 2-((2-chloro-5-cyano-3-(1-(3-vinyloxetan-3-yl)piperidin-4-yl)phenyl)amino)-4-(cyclopropylamino)imidazo[2,1-f][1,2,4]triazine-7-carbonitrile]
0.72 | COC[C@H](O)CN1CCN(c2cc(C#N)cc(Nc3nc(NC4CC4)c4ncc(C#N)n4n3)c2Cl)CC1 [Example 606, 2-[(2-chloro-5-cyano-3-{4-[(2R)-2-hydroxy-3-methoxypropyl]piperazin-1-yl}phenyl)amino]-4-(cyclopropylamino)imidazo [2,1-f][1,2,4]triazine-7-carbonitrile]
0.59 | CN1CCN(C2CN(c3cc(C#N)cc(Nc4nc(NC5CC5)c5ncc(C#N)n5n4)c3Cl)C2)CC1 [Example 151, 2-((2-chloro-5-cyano-3-(3-(4-methylpiperazin-1-yl)azetidin-1-yl)phenyl)amino)-4-(cyclopropylamino)imidazo[2,1-f][1,2,4]triazine-7-carbonitrile]
0.69 | N#Cc1cc(CN2CCN(C3COC3)CC2)c(Cl)c(Nc2nc(NC3CC3)c3ncc(C#N)n3n2)c1 [Example 403, 2-((2-chloro-5-cyano-3-((4-(oxetan-3-yl)piperazin-1-yl)methyl)phenyl)amino)-4-(cyclopropylamino)imidazo[2,1-f][1,2,4]triazine-7-carbonitrile HCl salt]
0.55 | CCNc1nc(Nc2cc(C#N)cc(N3CCC(NC(=O)OC)CC3)c2Cl)nn2c(C#N)cnc12 [Example 330, methyl (1-(2-chloro-5-cyano-3-((7-cyano-4-(ethylamino)imidazo[2,1-f][1,2,4]triazin-2-yl)amino)phenyl)piperidin-4-yl)carbamate]
2.97 | CC1(CN2CCN(c3cc(C(F)F)cc(Nc4nc(NC5CC5)c5ncc(C#N)n5n4)c3Cl)CC2)COC1 [Example 264, 2-((2-chloro-5-(difluoromethyl)-3-(4-((3-methyl-3-oxetanyl)methyl)-1-piperazinyl)phenyl)amino)-4-(cyclopropylamino)imidazo[2,1-f][1,2,4]triazine-7-carbonitrile]
